Data reported in patent publication US12590118B2, “Salt and crystal form of steroid derivative regulator” (Shanghai Hansoh Biomedical Co., Ltd., priority 2019, dated 2026).
Converted amounts (≈) assume the structure as drawn.

Legend:
[1] = Hygroscopicity experiment (DVS); assay type: physicochemical
Experimental: The hygroscopicity of crystal forms I, II and III of the free base of Example 40 under different relative humidity conditions was investigated, so as to provide a basis for screening of the crystal form and salt of the compound, production and storage.
10 to 15 mg of the free base of Example 40 was placed in the sample chamber of DVS. DVS was carried out, and the vapour sorption weight gain percentage of the compound at 80% RH was recorded at the same time.

[2] = Solubility experiment (thermodynamic solubility at 37° C.); assay type: physicochemical; conditions: for solubility at 24 h: 37 °C, thermodynamic from solid
Experimental: The solubility of the free base and salt of the compound in water, Fasted State Simulated Gastric Fluid (FaSGF), Fasted State Simulated Intestinal Fluid (FaSSIF) and Fed State Simulated Intestinal Fluid (FeSSIF) was compared, so as to provide a basis for evaluating the druggability of the crystal form and salt.
About 2 to 3 mg of crystal forms I, II and III of the free base of Example 40 were weighed, suspended in 1 mL of Fasted State Simulated Gastric Fluid (FaSSGF), Fasted State Simulated Intestinal Fluid (FaSSIF), Fed State Simulated Intestinal Fluid (FeSSIF) and pure water respectively, and shaked for 24 hours. Thermodynamic solubility of the compound at 37° C. was determined using HPLC by external standard method.

With `C[C@@H]1C[C@H](C(=O)Cn2ccc(C#N)n2)[C@@]2(C)CC[C@H]3[C@@H](CC[C@@H]4C[C@](C)(O)CC[C@@H]43)[C@H]12` [Crystal form I, 1-(2-((3R,5R,8R,9R,10S,13S,14S,15R,17S)-3-Hydroxy-3,13,15-trimethylhexadecahydro-1H-cyclopenta[a]phenanthren-17-yl)-2-oxoethyl)-1H-pyrazole-3-carbonitrile] the “hygroscopicity (in words)” value ([1]; DVS) was “no hygroscopicity”, the “Hygroscopicity (25° C./80% RH)” value ([1]; DVS vapour sorption weight gain at 80% RH, 25° C.) was 0.07% and the solubility at 24 h ([2]; FaSSGF (Fasted State Simulated Gastric Fluid), fassgf or other biorelevant, FaSSGF) was < 1 µg/mL. For the same compound, the solubility at 24 h ([2]; FaSSIF (Fasted State Simulated Intestinal Fluid), fassif) was 3.26 µg/mL (≈ 7.7 µM), the solubility at 24 h ([2]; FeSSIF (Fed State Simulated Intestinal Fluid), fessif) was 18.2 µg/mL (≈ 43 µM) and the “solubility compared among the three crystal forms (in words)” value ([2]; four media) was “the lowest”. The solubility at 24 h ([2]; pure water, water) was < 1 µg/mL.
